Laboratory results: patent US11440887B2, “Substituted 1,2,3,4-tetrahydroquinolines as inhibitors of repair enzyme 8-oxoguanine deoxyribonucleic acid glycosylase activity” (The Board of Trustees of the Leland Stanford Junior …, priority 2017, dated 2022)
Where “and” joins values, the source holds several entries; their conditions need not be identical. Equal values may be shown once.

Key:
OGG1 = OGG1 (Homo sapiens (Human), UniProt O15527); assay: Km and Kcat study (Michaelis-Menten / Lineweaver-Burk) of OGG1 with inhibitor; assay type: biochemical
Description: Methods: For Michaelis-Menten curves: Inhibitor 41 and hOGG1 (100 nM) were incubated in NEBuffer 4 (1×) with BSA (1×) at 37° C. (15 min) in 100 μL reaction volumes in a black 96-well plate. After that, OGR1 (0.8-10 μM) was added to the reaction mixture. Fluorescence at 460 nm was measured on a Thermo Fluoroskan Ascent FL fluorescence plate reader (Aex=355 nm). The initial rate (12 min) was calculated. Lineweaver-Burk plot was leaded from the Michaelis-Menten curves. Km and Vmax were calculated from the equation. Kcat was calculated from Kcat=Vmax/[enzyme].

NUDT16 = NUDT16 (Homo sapiens (Human), UniProt Q96DE0); assay: NUDT16 assay; assay type: biochemical; settings: 20 μM
Description: After 1 h incubation at 37° C., 5 μL of this reaction solution was added to 20 μL Kinase-Glo Luminescent Kinase Assay reaction solution (prepared as instructed for the ATP determination kit) in a 96 well plate. The bioluminescence signal was recorded at 1 min intervals over 10 min.

hABH3 = hABH3 (Homo sapiens (Human), UniProt Q96Q83); assay: ABH3 assay (MAQ probe); assay type: biochemical; settings: 20 μM inhibitor
Description: Enzyme (0.5 μM) was pre-incubated for 5 minutes with 20 μM inhibitor or vehicle or at 37° C. in 50 mM HEPES buffer (pH 8.0) containing 75 μM Fe(NH4)2(SO4)2, (See, e.g., Beharry, A. A., et al., J. Am. Chem. Soc. 2016, 138, 3647-3650, the disclosure of which is incorporated herein by reference.) 1 mM α-ketoglutarate, 2 mM Sodium ascorbate, 50 μg/ml BSA and 0.4 mg/ml Catalase. The MAQ probe (1 μM) was added and fluorescent signal plotted over 10 minutes to calculate initial rate. Inhibitor rates were normalized against the vehicle control rate.3

HeLa cells = assay: MTT assay, HeLa; assay type: cell-based, human; settings: 24 h
Description: Methods: HEK293T cells (concentration of 1.6×10^4 cells per well) and HeLa cells (concentration of 1.2×10^4 cells per well) were seeded to 96-well plate in supplemented DMEM culture medium (10% FBS, 100 U Pen./Strep.) and incubated for 30 h (HEK293T cells) and 16 h (HeLa cells) at +37° C. and 5% CO2. […] After the incubation period, 10 μL of the MTT labeling reagent (final concentration 0.5 mg/ml) was added to each well, and incubated at +37° C. and 5%. 100 μl of the solubilization solution was added into each well, and incubated for 20 h at +37° C. and 5%. Absorbance of the samples was measured by using a microplate reader Tecan Infinite M1000 at 550, and 650 nm. […] In the rest of the samples (10 μM, 1 μM, 100 nM, and 10 nM) concentration of DMSO was at the level of 1%. The controls were prepared: Ctrl—cells cultured only in the supplemented DMEM; Ctrl 5% DMSO—cells cultured in 5% DMSO in the supplemented DMEM; Ctrl 1% DMSO—cells cultured in 1% DMSO in the supplemented DMEM.

[1] = Half-life / pharmacokinetics after intraperitoneal dosing; assay type: in vivo; settings: mice, IP, 3 mg/kg
Description: Methods: Each OGG1 inhibitor was dosed by intraperitoneal (IP) and oral (PO) routes of administration at a target dose of 3 mg/kg. Blood samples were collected up to 24 hours post-dose, and blood concentrations of the test articles were determined by LC-MS/MS. Pharmacokinetic parameters were determined using Phoenix WinNonlin (v8.0) software

OGG1, sequence (O15527 whole entry): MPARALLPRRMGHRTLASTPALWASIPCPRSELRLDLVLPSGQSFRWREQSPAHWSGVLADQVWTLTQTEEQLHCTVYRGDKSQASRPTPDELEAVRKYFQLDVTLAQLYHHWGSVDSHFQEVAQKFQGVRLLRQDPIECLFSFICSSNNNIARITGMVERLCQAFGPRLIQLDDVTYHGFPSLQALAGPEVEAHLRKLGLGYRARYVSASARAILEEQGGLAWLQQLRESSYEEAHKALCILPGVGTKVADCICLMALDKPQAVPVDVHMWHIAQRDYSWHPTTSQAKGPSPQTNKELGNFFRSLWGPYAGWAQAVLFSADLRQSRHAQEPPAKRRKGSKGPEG
hABH3, sequence (Q96Q83 whole entry): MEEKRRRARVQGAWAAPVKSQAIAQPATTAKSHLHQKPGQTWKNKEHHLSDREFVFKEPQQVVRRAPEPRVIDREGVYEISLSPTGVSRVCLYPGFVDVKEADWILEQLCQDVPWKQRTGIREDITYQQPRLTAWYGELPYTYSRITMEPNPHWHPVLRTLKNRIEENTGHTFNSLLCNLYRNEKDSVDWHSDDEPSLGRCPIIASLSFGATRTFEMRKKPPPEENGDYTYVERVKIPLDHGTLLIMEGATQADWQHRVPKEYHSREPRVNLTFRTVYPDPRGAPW
NUDT16, sequence (Q96DE0 whole entry, species assumed): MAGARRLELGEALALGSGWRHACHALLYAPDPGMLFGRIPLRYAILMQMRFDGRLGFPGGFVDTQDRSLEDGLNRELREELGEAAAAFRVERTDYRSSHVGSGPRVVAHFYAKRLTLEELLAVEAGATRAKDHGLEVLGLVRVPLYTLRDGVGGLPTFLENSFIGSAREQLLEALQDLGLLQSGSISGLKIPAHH

Work on `NC(=O)c1cccc(-c2ccc(S(=O)(=O)Nc3ccc4c(c3)N(C(=O)C3CC3)CCC4)cc2)c1` [Compound 41] yielded a Kcat (OGG1; OGG1 with 200 nM 41) of 0.057 s⁻¹, a Kcat/Km (OGG1; OGG1 with 200 nM 41) of 0.0070 s^−1μM^−1 and a Km (OGG1; OGG1 with 200 nM 41) of 8.2 µM. For the same compound, the Kcat (OGG1; OGG1 with 2 μM 41) was 0.040 s⁻¹, the Kcat/Km (OGG1; OGG1 with 2 μM 41) was 0.022 s^−1μM^−1 and the Km (OGG1; OGG1 with 2 μM 41) was 1.8 µM. The “NUDT16 enzyme activity in the presence of the inhibitor” value (NUDT16) was roughly 70%, the “ABH3 enzyme activity in the presence of the inhibitor” value (hABH3) was roughly 100% and the “cytotoxicity by MTT assay” value (HeLa cells; 10 nM to 10 μM) was “little or no cytotoxicity”. For the same compound, the “toxicity by MTT assay” value (HeLa cells; 100 μM) was 30-50%, the “average exposure, dose-normalized AUClast” value [1] was 543±281 hr*kg*ng/m L/m g and the “maximum blood concentrations (average)” value [1] was 1210 ± 206 ng/mL. For the same compound, the “time of maximum blood concentrations post dosing” value [1] was 15 min, the “Half-life Mean” value ([1]; mean of three replicates, listed as SU0268) was “approximately 4 hr and 4.02±0.709 hr and 4.02 hr” and the “Half-life R1” value ([1]; replicate 1) was 4.84 h. The “Half-life R3” value ([1]; replicate 3) was 3.60 h.
